Test results as given in US12703729B2, “GIP agonist compounds and methods” (Zealand Pharma A/S, priority 2014, dated 2026).
Starred links: 1 amine or outer side, 2 acyl side, 3 side chain; linkers in the order of their positions; H or OH if unused. Non-standard residues stand in square brackets, D forms with d. Residues, ends and D or L forms follow the SMILES beside them. Groups on a side chain read outwards from the residue. *: point of attachment. X1 = O=C(O)CCCCCCCCCCCCCCCCCCC(=O)N1CCN(CC(=O)*)CC1; C20 diacid = O=C(O)CCCCCCCCCCCCCCCCCCC(=O)*; γGlu = O=C(O)[C@H](CCC(=O)[*:2])N[*:1]; AEEA = NCCOCCOCC(=O)O; Aib = CC(C)(N)C(=O)O

What was measured:
[1] = target: human GLP-1 receptor (GLP-1R) (Homo sapiens, UniProt P43220); assay: Activity assay at human GLP-1 receptor, cAMP induction (AlphaScreen), Example 3
Chain of human GLP-1 receptor (GLP-1R) (P43220 24-463): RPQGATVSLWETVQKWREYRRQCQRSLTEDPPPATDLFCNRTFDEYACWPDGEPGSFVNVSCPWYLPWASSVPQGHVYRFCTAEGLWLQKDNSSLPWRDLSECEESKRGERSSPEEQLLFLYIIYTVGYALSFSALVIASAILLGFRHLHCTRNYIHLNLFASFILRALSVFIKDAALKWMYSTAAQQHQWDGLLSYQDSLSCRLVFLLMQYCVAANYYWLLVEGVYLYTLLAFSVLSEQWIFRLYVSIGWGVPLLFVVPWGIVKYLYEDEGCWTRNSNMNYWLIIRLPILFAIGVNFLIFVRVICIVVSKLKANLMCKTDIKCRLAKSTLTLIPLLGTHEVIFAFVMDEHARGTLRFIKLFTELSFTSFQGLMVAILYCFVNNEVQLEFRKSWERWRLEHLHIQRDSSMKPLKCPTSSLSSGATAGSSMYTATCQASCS

[2] = target: T1, human GIP R (Homo sapiens, UniProt P48546); assay: cell-based
T1 sequence (P48546 22-466): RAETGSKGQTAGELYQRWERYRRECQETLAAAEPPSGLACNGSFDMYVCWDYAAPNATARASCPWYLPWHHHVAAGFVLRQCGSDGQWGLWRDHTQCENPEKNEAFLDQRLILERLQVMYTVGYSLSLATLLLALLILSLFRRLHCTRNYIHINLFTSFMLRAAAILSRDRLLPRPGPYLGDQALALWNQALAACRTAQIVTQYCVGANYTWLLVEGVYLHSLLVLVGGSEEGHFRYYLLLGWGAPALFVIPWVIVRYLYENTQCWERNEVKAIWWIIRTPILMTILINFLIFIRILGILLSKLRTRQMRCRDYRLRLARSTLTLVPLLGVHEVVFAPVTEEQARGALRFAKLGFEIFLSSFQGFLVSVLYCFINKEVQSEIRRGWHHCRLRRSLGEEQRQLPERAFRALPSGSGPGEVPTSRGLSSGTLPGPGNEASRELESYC

[3] = target: T2, human GIP receptor (GIP R) (Homo sapiens, UniProt P48546); assay: Activity assay at human GIP receptor, cAMP induction (AlphaScreen), Example 3
T2 sequence (P48546 22-466): T1 sequence (P48546 22-466)

Row | Structure (SMILES) | EC50 [1] | EC50 [2] | EC50 [3]
1 | CC[C@H](C)[C@H](NC(=O)[C@H](CO)NC(=O)[C@H](Cc1ccc(O)cc1)NC(=O)[C@H](CC(=O)O)NC(=O)[C@H](CO)NC(=O)[C@@H](NC(=O)[C@H](Cc1ccccc1)NC(=O)[C@@H](NC(=O)CNC(=O)[C@H](CCC(=O)O)NC(=O)C(C)(C)NC(=O)[C@@H](N)Cc1ccc(O)cc1)[C@@H](C)O)[C@@H](C)CC)C(=O)N[C@@H](CCC(=O)O)C(=O)N[C@@H](CC(C)C)C(=O)N[C@@H](CC(=O)O)C(=O)N[C@@H](CCCCN)C(=O)N[C@@H](CCCCNC(=O)COCCOCCNC(=O)COCCOCCNC(=O)CC[C@H](NC(=O)CCCCCCCCCCCCCCCCCCC(=O)O)C(=O)O)C(=O)N[C@@H](Cc1c[nH]cn1)C(=O)N[C@@H](CCC(N)=O)C(=O)N[C@@H](CCC(N)=O)C(=O)N[C@@H](CC(=O)O)C(=O)N[C@@H](Cc1ccccc1)C(=O)N[C@H](C(=O)N[C@@H](CC(N)=O)C(=O)N[C@@H](Cc1ccc(O)cc1)C(=O)N[C@@H](CC(C)C)C(=O)N[C@@H](CC(C)C)C(=O)N[C@@H](C)C(=O)N[C@@H](CCC(N)=O)C(=O)NCC(=O)N1CCC[C@H]1C(=O)N[C@@H](CO)C(=O)N[C@@H](CO)C(=O)NCC(=O)N[C@@H](C)C(=O)N1CCC[C@H]1C(=O)N1CCC[C@H]1C(=O)N1CCC[C@H]1C(=O)N[C@@H](CO)C(N)=O)C(C)C [Compound 8] (H-Y[Aib]EGTFISDYSIELDKK([AEEA-AEEA-γGlu-C20 diacid])HQQDFVNYLLAQGPSSGAPPPS-NH2) | > 10 nM | 9 pM | 
2 | CC[C@H](C)[C@H](NC(=O)[C@H](CO)NC(=O)[C@H](Cc1ccc(O)cc1)NC(=O)[C@H](CC(=O)O)NC(=O)[C@H](CO)NC(=O)[C@@H](NC(=O)[C@H](Cc1ccccc1)NC(=O)[C@@H](NC(=O)CNC(=O)[C@H](CCC(=O)O)NC(=O)C(C)(C)NC(=O)[C@@H](N)Cc1ccc(O)cc1)[C@@H](C)O)[C@@H](C)CC)C(=O)N[C@@H](CCC(=O)O)C(=O)N[C@@H](CC(C)C)C(=O)N[C@@H](CC(=O)O)C(=O)N[C@@H](CCCCN)C(=O)N[C@@H](CCCCNC(=O)COCCOCCNC(=O)COCCOCCNC(=O)CC[C@H](NC(=O)CCCCCCCCCCCCCCCCCCC(=O)O)C(=O)O)C(=O)N[C@@H](Cc1c[nH]cn1)C(=O)N[C@@H](CCC(N)=O)C(=O)N[C@@H](CCC(N)=O)C(=O)N[C@@H](CC(=O)O)C(=O)N[C@@H](Cc1ccccc1)C(=O)N[C@H](C(=O)N[C@@H](CC(N)=O)C(=O)N[C@@H](Cc1c[nH]c2ccccc12)C(=O)N[C@@H](CC(C)C)C(=O)N[C@@H](CC(C)C)C(=O)N[C@@H](C)C(=O)N[C@@H](CCC(N)=O)C(=O)NCC(=O)N1CCC[C@H]1C(=O)N[C@@H](CO)C(=O)N[C@@H](CO)C(=O)NCC(=O)N[C@@H](C)C(=O)N1CCC[C@H]1C(=O)N1CCC[C@H]1C(=O)N1CCC[C@H]1C(=O)N[C@@H](CO)C(N)=O)C(C)C [Compound 9] (H-Y[Aib]EGTFISDYSIELDKK([AEEA-AEEA-γGlu-C20 diacid])HQQDFVNWLLAQGPSSGAPPPS-NH2) | > 3 nM | 8 pM | 9 pM
3 | CC[C@H](C)[C@H](NC(=O)[C@H](CO)NC(=O)[C@H](Cc1ccc(O)cc1)NC(=O)[C@H](CC(=O)O)NC(=O)[C@H](CO)NC(=O)[C@@H](NC(=O)[C@H](Cc1ccccc1)NC(=O)[C@@H](NC(=O)CNC(=O)[C@H](CCC(=O)O)NC(=O)C(C)(C)NC(=O)[C@@H](N)Cc1ccc(O)cc1)[C@@H](C)O)[C@@H](C)CC)C(=O)N[C@@H](CCC(=O)O)C(=O)N[C@@H](CC(C)C)C(=O)N[C@@H](CCC(=O)O)C(=O)N[C@@H](CCCCN)C(=O)N[C@@H](CCCCNC(=O)COCCOCCNC(=O)COCCOCCNC(=O)CC[C@H](NC(=O)CCCCCCCCCCCCCCCCCCC(=O)O)C(=O)O)C(=O)N[C@@H](C)C(=O)N[C@@H](C)C(=O)N[C@@H](CCCCN)C(=O)N[C@@H](CCC(=O)O)C(=O)N[C@@H](Cc1ccccc1)C(=O)N[C@H](C(=O)N[C@@H](CC(N)=O)C(=O)N[C@@H](Cc1c[nH]c2ccccc12)C(=O)N[C@@H](CC(C)C)C(=O)N[C@@H](CC(C)C)C(=O)N[C@@H](C)C(=O)N[C@@H](CCC(N)=O)C(=O)NCC(=O)N1CCC[C@H]1C(=O)N[C@@H](CO)C(=O)N[C@@H](CO)C(=O)NCC(=O)N[C@@H](C)C(=O)N1CCC[C@H]1C(=O)N1CCC[C@H]1C(=O)N1CCC[C@H]1C(=O)N[C@@H](CO)C(N)=O)C(C)C [Compound 11] (H-Y[Aib]EGTFISDYSIELEKK([AEEA-AEEA-γGlu-C20 diacid])AAKEFVNWLLAQGPSSGAPPPS-NH2) | > 3 nM | 9 pM | 8 pM
4 | CC[C@H](C)[C@H](NC(=O)[C@H](CCCCN)NC(=O)[C@H](CCC(=O)O)NC(=O)[C@H](CC(C)C)NC(=O)[C@H](CCC(=O)O)NC(=O)[C@@H](NC(=O)[C@H](CO)NC(=O)[C@H](Cc1ccc(O)cc1)NC(=O)[C@H](CC(=O)O)NC(=O)[C@H](CO)NC(=O)[C@@H](NC(=O)[C@H](Cc1ccccc1)NC(=O)[C@@H](NC(=O)CNC(=O)[C@H](CCC(=O)O)NC(=O)C(C)(C)NC(=O)[C@@H](N)Cc1ccc(O)cc1)[C@@H](C)O)[C@@H](C)CC)[C@@H](C)CC)C(=O)N[C@@H](C)C(=O)N[C@@H](CCC(N)=O)C(=O)N[C@@H](CCCNC(=N)N)C(=O)N[C@@H](C)C(=O)N[C@@H](Cc1ccccc1)C(=O)N[C@H](C(=O)N[C@@H](CCC(=O)O)C(=O)N[C@@H](Cc1c[nH]c2ccccc12)C(=O)N[C@@H](CC(C)C)C(=O)N[C@@H](CC(C)C)C(=O)N[C@@H](C)C(=O)N[C@@H](CCC(N)=O)C(=O)N[C@@H](CCCCNC(=O)COCCOCCNC(=O)COCCOCCNC(=O)CC[C@H](NC(=O)CCCCCCCCCCCCCCCCCCC(=O)O)C(=O)O)C(N)=O)C(C)C [Compound 14] (H-Y[Aib]EGTFISDYSIELEKIAQRAFVEWLLAQK([AEEA-AEEA-γGlu-C20 diacid])-NH2) | > 10 nM | 24 pM | 14 pM
5 | CC[C@H](C)[C@H](NC(=O)[C@H](Cc1ccccc1)NC(=O)[C@H](C)NC(=O)[C@H](CCCNC(=N)N)NC(=O)[C@H](CCC(N)=O)NC(=O)[C@H](C)NC(=O)[C@H](CCCCNC(=O)COCCOCCNC(=O)COCCOCCNC(=O)CN1CCN(C(=O)CCCCCCCCCCCCCCCCCCC(=O)O)CC1)NC(=O)[C@H](CCCCN)NC(=O)[C@H](CC(=O)O)NC(=O)[C@H](CC(C)C)NC(=O)[C@H](CCC(=O)O)NC(=O)[C@@H](NC(=O)[C@H](CO)NC(=O)[C@H](Cc1ccc(O)cc1)NC(=O)[C@H](CC(=O)O)NC(=O)[C@H](CO)NC(=O)[C@@H](NC(=O)[C@H](Cc1ccccc1)NC(=O)[C@@H](NC(=O)CNC(=O)[C@H](CCC(=O)O)NC(=O)C(C)(C)NC(=O)[C@@H](N)Cc1ccc(O)cc1)[C@@H](C)O)[C@@H](C)CC)[C@@H](C)CC)C(=O)N[C@@H](CCC(=O)O)C(=O)N[C@@H](Cc1c[nH]c2ccccc12)C(=O)N[C@@H](CC(C)C)C(=O)N[C@@H](CC(C)C)C(=O)N[C@@H](C)C(=O)N[C@@H](CCC(N)=O)C(=O)NCC(=O)N1CCC[C@H]1C(=O)N[C@@H](CO)C(=O)N[C@@H](CO)C(=O)NCC(=O)N[C@@H](C)C(=O)N1CCC[C@H]1C(=O)N1CCC[C@H]1C(=O)N1CCC[C@H]1C(=O)N[C@@H](CO)C(N)=O [Compound 19] (H-Y[Aib]EGTFISDYSIELDKK([AEEA-AEEA-X1])AQRAFIEWLLAQGPSSGAPPPS-NH2) | > 3 nM | 6 pM | 5 pM
6 | CC[C@H](C)[C@H](NC(=O)[C@H](CO)NC(=O)[C@H](Cc1ccc(O)cc1)NC(=O)[C@H](CC(=O)O)NC(=O)[C@H](CO)NC(=O)[C@@H](NC(=O)[C@H](Cc1ccccc1)NC(=O)[C@@H](NC(=O)CNC(=O)[C@H](CCC(=O)O)NC(=O)C(C)(C)NC(=O)[C@@H](N)Cc1ccc(O)cc1)[C@@H](C)O)[C@@H](C)CC)C(=O)N[C@@H](CCC(=O)O)C(=O)N[C@@H](CC(C)C)C(=O)N[C@@H](CC(=O)O)C(=O)N[C@@H](CCCCN)C(=O)N[C@@H](CCCCNC(=O)COCCOCCNC(=O)COCCOCCNC(=O)CN1CCN(C(=O)CCCCCCCCCCCCCCCCCCC(=O)O)CC1)C(=O)N[C@@H](C)C(=O)N[C@@H](CCC(N)=O)C(=O)N[C@@H](CCCNC(=N)N)C(=O)N[C@@H](C)C(=O)N[C@@H](Cc1ccccc1)C(=O)N[C@H](C(=O)N[C@@H](CCC(=O)O)C(=O)N[C@@H](Cc1c[nH]c2ccccc12)C(=O)N[C@@H](CC(C)C)C(=O)N[C@@H](CC(C)C)C(=O)N[C@@H](C)C(=O)N[C@@H](CCC(N)=O)C(=O)NCC(=O)N1CCC[C@H]1C(=O)N[C@@H](CO)C(=O)N[C@@H](CO)C(=O)NCC(=O)N[C@@H](C)C(=O)N1CCC[C@H]1C(=O)N1CCC[C@H]1C(=O)N1CCC[C@H]1C(=O)N[C@@H](CO)C(N)=O)C(C)C [Compound 20] (H-Y[Aib]EGTFISDYSIELDKK([AEEA-AEEA-X1])AQRAFVEWLLAQGPSSGAPPPS-NH2) | > 3 nM | 7 pM | 6 pM
